Experimental data taken from patent US4015974A, “Amido phosphorothiolates” (priority 1972, dated 1977).

Key:
Assay type in all cases: in vivo
[1] = tested on: barnyard grass (Echinochloa crus-galli); assay: Pre-emergence application, herbicidal effect on barnyard grass (Table 1); set-up: key: 0: not damaged; 5: completely killed; conditions: 20 days after application, score 0-5
Description: (§1) Seeds of barnyard grass (Echinochloa crus-galli) and large crabgrass (Digitaria sanguinalis) as representatives of grassy weeds and those of radish, redroot pigweed (Amaranthus retroflexus), common purslane (Portulaca oleracea) and common lambsquarter (Chenopodium album) as representatives of broad-leaved weeds were individually sowed in flower pots of about 10 cm. in diameter. After covering the seeds with soil, test compounds as shown in Table 1 were individually applied to the soil treatment. Thereafter the plants were grown in a green house and 20 days after application the herbicidal effects of the compounds were observed, the results of which are as shown in Table 1.
(§2) Herbicidal effects were evaluated by the numerals ranging from 0 (not damaged) to 5 (completely killed). All the test compounds were used in the form of wettable powder and diluted with water before application.

[2] = tested on: large crabgrass (Digitaria sanguinalis); assay: Pre-emergence application, herbicidal effect on large crabgrass (Table 1); set-up: key: 0: not damaged; 5: completely killed; conditions: 20 days after application, score 0-5
Description: as §1, §2

[3] = tested on: radish; assay: Pre-emergence application, herbicidal effect on radish (Table 1); set-up: key: 0: not damaged; 5: completely killed; conditions: 20 days after application, score 0-5
Description: as §1, §2

[4] = tested on: redroot pigweed (Amaranthus retroflexus); assay: Pre-emergence application, herbicidal effect on redroot pigweed (Table 1); set-up: key: 0: not damaged; 5: completely killed; conditions: 20 days after application, score 0-5
Description: as §1, §2

[5] = tested on: common purslane (Portulaca oleracea); assay: Pre-emergence application, herbicidal effect on common purslane (Table 1); set-up: key: 0: not damaged; 5: completely killed; conditions: 20 days after application, score 0-5
Description: as §1, §2

[6] = tested on: common lambsquarter (Chenopodium album); assay: Pre-emergence application, herbicidal effect on common lambsquarter (Table 1); set-up: key: 0: not damaged; 5: completely killed; conditions: 20 days after application, score 0-5
Description: as §1, §2

[7] = tested on: rice; assay: Water application, phytotoxicity on rice (Table 2); set-up: key: 0: no effect; 1: very slightly affected; 2: slightly affected; 3: moderately affected; 4: considerably affected; 5: completely killed; conditions: 25 days, score 0-5
Description: (§3) Wagner pots of 14 cm. in diameter, which had been packed with 1.5 kg. of paddy field soil, were brought into the state of paddy fields. To the pots were transplanted rice seedlings at the 3-leave stage. Further, seeds of barnyard grass (Echinochloa crus-galli) were sowed in the pots and required amounts of test compounds were applied to the soil under water lodged condition. 25 days after application, the degrees of herbicidal activity and phytotoxity were investigated on above-mentioned plants which had been transplanted and sowed, and on broad-leaved weeds, e.g., monochoria (Monochoria viaginalis Presl.), false pimpernel (Linderna pyxidaria) and toothcup (Rotala indica Koehue), which had been spontaneously germinated. The test compounds were used in the form of wettable powder. The herbicidal effects and the phytotoxity were evaluated as follows by the numerals ranging from 0 to 5.

[8] = tested on: barnyard grass (Echinochloa crus-galli); assay: Water application, herbicidal effect on barnyard grass (Table 2); set-up: key: 0: not damaged; 5: completely killed; conditions: 25 days, score 0-5
Description: as §3

[9] = tested on: broad-leaved weeds, e.g., monochoria, false pimpernel and toothcup; assay: Water application, herbicidal effect on broad-leaved weeds (Table 2); set-up: key: 0: not damaged; 5: completely killed; conditions: 25 days, score 0-5
Description: as §3

Row | SMILES | Herbicidal effect, barnyard grass ([1]; 10 g./a.) | Herbicidal effect, barnyard grass ([1]; 20 g./a.) | Herbicidal effect, barnyard grass ([1]; 40 g./a.) | Herbicidal effect, large crabgrass ([2]; 10 g./a.) | Herbicidal effect, large crabgrass ([2]; 20 g./a.) | Herbicidal effect, large crabgrass ([2]; 40 g./a.) | Herbicidal effect, radish ([3]; 10 g./a.) | Herbicidal effect, radish ([3]; 20 g./a.) | Herbicidal effect, radish ([3]; 40 g./a.) | Herbicidal effect, redroot pigweed ([4]; 10 g./a.) | Herbicidal effect, redroot pigweed ([4]; 20 g./a.) | Herbicidal effect, redroot pigweed ([4]; 40 g./a.) | Herbicidal effect, common purslane ([5]; 10 g./a.) | Herbicidal effect, common purslane ([5]; 20 g./a.) | Herbicidal effect, common purslane ([5]; 40 g./a.) | Herbicidal effect, common lambsquarter ([6]; 10 g./a.) | Herbicidal effect, common lambsquarter ([6]; 20 g./a.) | Herbicidal effect, common lambsquarter ([6]; 40 g./a.) | Phytotoxicity on rice ([7]; 10 g/a) | Phytotoxicity on rice ([7]; 20 g/a) | also measured
1 | CCCOP(=O)(SCC(=O)N1CCCCC1C)SCC(C)C (stereo not drawn) [Compound 67] | 4 | 5 | 5 | 4 | 5 | 5 | 0 | 0 | 0 | 4 | 4 | 5 | 4 | 4 | 5 | 3 | 4 | 5 | 0 | 0 | Phytotoxicity on rice ([7]; 40 g/a): 0; Herbicidal effects, barnyard grass ([8]; 10 g/a): 5; Herbicidal effects, barnyard grass ([8]; 20 g/a): 5; Herbicidal effects, barnyard grass ([8]; 40 g/a): 5; Herbicidal effects, broad-leaved weeds ([9]; 10 g/a): 5; Herbicidal effects, broad-leaved weeds ([9]; 20 g/a): 5; Herbicidal effects, broad-leaved weeds ([9]; 40 g/a): 5
2 | CCCCOP(=O)(SCC)SCC(=O)N1CCCCC1CC (stereo not drawn) [Compound 92] | 5 | 5 | 5 | 5 | 5 | 5 | 0 | 0 | 0 | 5 | 5 | 5 | 5 | 5 | 5 | 5 | 5 | 5 | 0 | 0 | Phytotoxicity on rice ([7]; 40 g/a): 2; Herbicidal effects, barnyard grass ([8]; 10 g/a): 5; Herbicidal effects, barnyard grass ([8]; 20 g/a): 5; Herbicidal effects, barnyard grass ([8]; 40 g/a): 5; Herbicidal effects, broad-leaved weeds ([9]; 10 g/a): 5; Herbicidal effects, broad-leaved weeds ([9]; 20 g/a): 5; Herbicidal effects, broad-leaved weeds ([9]; 40 g/a): 5
3 | CCOP(=O)(SCC(=O)N1CCCCC1C)SC(C)c1ccccc1 (stereo not drawn) [Compound 64] | 4 | 5 | 5 | 4 | 5 | 5 | 0 | 0 | 0 | 3 | 3 | 4 | 3 | 3 | 4 | 3 | 4 | 4 | 0 | 0 | Phytotoxicity on rice ([7]; 40 g/a): 0; Herbicidal effects, barnyard grass ([8]; 10 g/a): 5; Herbicidal effects, barnyard grass ([8]; 20 g/a): 5; Herbicidal effects, barnyard grass ([8]; 40 g/a): 5; Herbicidal effects, broad-leaved weeds ([9]; 10 g/a): 5; Herbicidal effects, broad-leaved weeds ([9]; 20 g/a): 5; Herbicidal effects, broad-leaved weeds ([9]; 40 g/a): 5
4 | CCOP(=O)(SCC(=O)N1CCC(C)CC1)SC(C)C (stereo not drawn) [Compound 26] | 4 | 5 | 5 | 4 | 5 | 5 | 0 | 0 | 0 | 4 | 4 | 4 | 4 | 4 | 4 | 3 | 4 | 4 | 0 | 0 | Phytotoxicity on rice ([7]; 40 g/a): 0; Herbicidal effects, barnyard grass ([8]; 10 g/a): 5; Herbicidal effects, barnyard grass ([8]; 20 g/a): 5; Herbicidal effects, barnyard grass ([8]; 40 g/a): 5; Herbicidal effects, broad-leaved weeds ([9]; 10 g/a): 5; Herbicidal effects, broad-leaved weeds ([9]; 20 g/a): 5; Herbicidal effects, broad-leaved weeds ([9]; 40 g/a): 5
5 | CCCCOP(=O)(SCC(=O)N1CCCCC1C)SCc1ccc(C)cc1 (stereo not drawn) [Compound 56] | 5 | 5 | 5 | 4 | 5 | 5 | 0 | 0 | 0 | 3 | 3 | 5 | 3 | 3 | 4 | 3 | 4 | 5 | 0 | 0 | Phytotoxicity on rice ([7]; 40 g/a): 0; Herbicidal effects, barnyard grass ([8]; 10 g/a): 5; Herbicidal effects, barnyard grass ([8]; 20 g/a): 5; Herbicidal effects, barnyard grass ([8]; 40 g/a): 5; Herbicidal effects, broad-leaved weeds ([9]; 10 g/a): 5; Herbicidal effects, broad-leaved weeds ([9]; 20 g/a): 5; Herbicidal effects, broad-leaved weeds ([9]; 40 g/a): 5
